From patent US20210023074A1, “TREATMENT OF DEMYELINATING DISEASES” (Victoria Link Ltd., priority 2018, published 2021) come the findings set out here.

Entries after “also recorded” stand apart in the source; their conditions may differ.

The test system of the test is experimental autoimmune encephalomyelitis (EAE) mice. As to the kind of experiment: EAE model of MS, disease score, treatment from day of disease onset (score >1). In kind it is in vivo, C57BL/6 mice. The protocol: Experimental detail: EAE was induced in female C57BL/6 mice as described in Example 1. On the day of disease onset (score >1, dotted line), mice were started on daily treatment with vehicle only (Veh) or nalmefene (NaIM) at 0.1, 0.03, 0.01, or 0.003 mg/kg by i.p. injection. […]
Experimental detail: EAE was induced in female C57BL/6 mice as described in Example 1. On the day of disease onset (score >1, dotted line), mice were treated with vehicle only (daily), nalmefene (0.01 mg/kg by i.p. injection daily), the KOR antagonist norBNI (10 mg/kg by i.p. injection weekly), both nalmefene and norBNI, or the MOR antagonist BFNA (10 mg/kg by i.p. injection weekly).
Experimental detail: EAE was induced in female C57BL/6 mice as described in Example 1. On the day of disease onset (score >1, dotted line), mice were treated with vehicle only (daily), nalmefene (0.01 mg/kg by i.p. injection daily), the KOR antagonist norBNI (10 mg/kg by i.p. injection weekly), both nalmefene and norBNI, or the MOR antagonist BFNA (10 mg/kg by i.p. injection weekly). The peak disease score during the first EAE episode was recorded, and mice were considered recovered if they received a score <0.5 by day 23 post treatment initiation.
Experimental detail: EAE was induced in female C57BL/6 mice as described in Example 1.

In the case of `Oc1ccc2c3c1O[C@H]1c4[nH]c5c(c4C[C@@]4(O)[C@@H](C2)N(CC2CC2)CC[C@]314)C[C@@]1(O)[C@H]2Cc3ccc(O)c4c3[C@@]1(CCN2CC1CC1)[C@H]5O4` [norBNI], the “effect on nalmefene-mediated recovery from paralysis” value (norBNI 10 mg/kg i.p. weekly with nalmefene 0.01 mg/kg i.p. daily) was “abolishes the ability of nalmefene to enable full recovery from paralysis; also recorded: abolishes the ability of nalmefene to enable and sustain recovery from paralysis”.

For `COC(=O)/C=C/C(=O)N[C@@H]1CC[C@@]2(O)[C@H]3Cc4ccc(O)c5c4[C@@]2(CCN3CC2CC2)[C@H]1O5` [BFNA], under “10 mg/kg i.p. weekly from disease onset”, the “recovery from paralysis (disease score)” value is “does not enable recovery”. For the compound `CN1CCC[C@@H]1CCO[C@](C)(c1ccccc1)c1ccc(Cl)cc1` [clemastine fumerate], the “number of days in recovery (sustained recovery)” value (nalmefene 0.01 mg/kg i.p. daily, clemastine fumerate 10 mg/kg i.p.) is “recovery is not sustained”.
